From publication PMC5719405, “Sex-related pharmacokinetic differences and mechanisms of metapristone (RU486 metabolite)” (Scientific Reports, 2017)
Where two headings read alike, the source gives them in different places.

What was measured:
HT-29 cells = conditions: cited from earlier work
[1] = Single-dose pharmacokinetics of metapristone in rats (p.o. and i.v.), non-compartmental analysis; type: in vivo, Sprague Dawley (SD) rats; conditions: for MRT last: read-out: MRT (0-t)
Protocol: (§1) For pharmacokinetic study, rats were fasted overnight with free access to water using procedures reported previously. Ninety-six SD rats (forty-eight males and forty-eight females) were randomly divided into […] single-dose groups. Rats (six animals/sex/dose) were given a single oral dose of 22.5, 45 and 90 mg/kg metapristone (in soybean oil solution) by intragastric administration or 10 mg/kg metapristone by intravenous bolus injection. Rat blood samples (0.25 mL) were collected from the ocular vein into heparinized tubes prior to and at 0 (before administration), 0.5, 1.0, 1.5, 2.0, 4.0, 6.0, 8.0, 12, 24, 36 and 48 h post-dosing in female rats or 0.5, 1.0, 1.5, 2.0, 4.0, 6.0, 8.0, 12, 24, 30 and 36 h post-dosing in male rats. In the repeated dose study twenty-four rats (six animals/sex/dose) received the same dosing regimen at 45 mg/kg metapristone for 10 days. Blood samples were collected after oral administration on day 1 and 10 at T max. The samples were stored at −80 °C until analysis. Beagle dogs (three animals/sex/dose) were dosed by gavage at 5.62, 11.25, 22.5 mg/kg metapristone (in soybean oil solution). Dog blood (0.25 mL) was withdrawn from the jugular vein at 0.5, 1.0, 2.0, 4.0, 6.0, 8.0, 10, 12, 24 and 48 h after a single oral administration.
The plasma samples obtained by centrifugation at 4000 g for 10 min and stored at −80 °Cuntil analysis. To each 100 µL of plasma sample, 50 µL of internal standard solution were added. Metapristone was then separated and analyzed by the LC/MS/MS method according to the previously described procedures. Peak area ratios of metapristone to the internal standard were plotted against theoretical concentrations. The maximum plasma concentration (C max), the time to reach C max (T max) were determined directly from experimental data. The other pharmacokinetic parameters such as elimination half-life (t 1/2), and mean residence time (MRT) were calculated by using the non-compartmental pharmacokinetics data analysis software of DAS version 3.2 (Bio Guider Co., Shanghai, China). The area under the plasma concentration-time curve from zero to infinity was calculated by using the linear trapezoidal rule with extrapolation to infinity with terminal constant eliminate rate (k e). Bioavailability was calculated as (AUCp.o./AUCi.v.) x (dosei.v./ dosep.o.) 100% as we previously described.

[2] = Repeated 10-day oral dosing, accumulation of metapristone in blood; type: in vivo; conditions: rats, 45 mg/kg/day p.o. for 10 days, 6 h post dosing
Protocol: In order to determine whether metapristone accumulated in blood over a long period of multiple dose administration, metapristone levels in blood were monitored at 6 h post dosing on day 1 and 10 during a consecutive 10-day oral dosing period with metapristone at 45 mg/kg/day.
as §1, with “Beagle dogs (three animals/sex/dose) were dosed by gavage at 5.62, 11.25, 22.5 mg/kg metapristone (in soybean oil solution). Dog blood (0.25 mL) was withdrawn from the jugular vein at 0.5, 1.0, 2.0, 4.0, 6.0, 8.0, 10, 12, 24 and 48 h after a single oral administration.” left out

[3] = rats, 12.5, 50 and 200 mg/kg/day; only occurred at 200 mg/kg/day; cited from earlier work
[4] = Sprague-Dawley, rat, plasma, iv, female rats, i.v. 10 mg/kg
[5] = Sprague-Dawley, rat, plasma, iv, male rats, i.v. 10 mg/kg
[6] = Sprague-Dawley, rat, plasma, po, female rats, p.o. 22.5 mg/kg
[7] = Sprague-Dawley, rat, plasma, po, female rats, p.o. 45 mg/kg
[8] = Sprague-Dawley, rat, plasma, po, female rats, p.o. 90 mg/kg
[9] = Sprague-Dawley, rat, plasma, po, male rats, p.o. 22.5 mg/kg
[10] = Sprague-Dawley, rat, plasma, po, male rats, p.o. 45 mg/kg
[11] = Sprague-Dawley, rat, plasma, po, male rats, p.o. 90 mg/kg

For `CC#C[C@]1(O)CC[C@H]2[C@@H]3CCC4=CC(=O)CCC4=C3[C@@H](c3ccc(NC)cc3)C[C@@]21C` [metapristone, N-monodemethyl mifepristone], the “adhesion of HT-29 cells to endothelial cells” value (HT-29 cells) is given as “interrupted adhesion”, the AUC(0-inf) [1, 4] is given as 9810 ± 2340 ng·h/mL and the AUC(0-t) [1, 4] is given as 9750 ± 2320 ng·h/mL. It also gave a Cmax [1, 4] of 6050 ± 670 ng/mL, a half-life [1, 4] of 5.18 ± 3.41 h and an MRT last [1, 4] of 1.68 ± 0.72 h. The AUC(0-inf) [1, 5] was 5460 ± 1150 ng·h/mL, the AUC(0-t) [1, 5] was 5520 ± 1150 ng·h/mL and the Cmax [1, 5] was 4050 ± 250 ng/mL. For the same compound, the half-life [1, 5] was 9.45 ± 4.99 h, the MRT last [1, 5] was 1.56 ± 0.41 h and the AUC(0-inf) [1, 6] was 4230 ± 1640 ng·h/mL. The AUC(0-t) [1, 6] was 4050 ± 1620 ng·h/mL, the Cmax [1, 6] was 270 ± 50 ng/mL and the half-life [1, 6] was 10.8 ± 3.2 h. It also gave a bioavailability ([1]; Sprague-Dawley, rat, plasma, po, female rats, p.o. 22.5 mg/kg, read-out: F) of 18.5%, an MRT last [1, 6] of 14.4 ± 5.65 h and a Tmax ([1]; Sprague-Dawley, rat, plasma, po, female rats, p.o. 22.5 mg/kg, read-out: T max) of 9 ± 7.5 h. It also gave a Vd/F ([1]; Sprague-Dawley, rat, plasma, po, female rats, p.o. 22.5 mg/kg, read-out: V d /F) of 77.3 ± 36 L/kg, an AUC(0-inf) [1, 7] of 11300 ± 3170 ng·h/mL and an AUC(0-t) [1, 7] of 9630 ± 4540 ng·h/mL. For the same compound, the Cmax [1, 7] was 650 ± 220 ng/mL, the half-life [1, 7] was 10.7 ± 3.71 h and the bioavailability ([1]; Sprague-Dawley, rat, plasma, po, female rats, p.o. 45 mg/kg, read-out: F) was 22%. The MRT last [1, 7] was 13.7 ± 6.91 h, the Tmax ([1]; Sprague-Dawley, rat, plasma, po, female rats, p.o. 45 mg/kg, read-out: T max) was 11 ± 12.3 h and the Vd/F ([1]; Sprague-Dawley, rat, plasma, po, female rats, p.o. 45 mg/kg, read-out: V d /F) was 67.6 ± 47.6 L/kg. It also gave an AUC(0-inf) [1, 8] of 15600 ± 2100 ng·h/mL, an AUC(0-t) [1, 8] of 14900 ± 2190 ng·h/mL and a Cmax [1, 8] of 790 ± 200 ng/mL. The half-life [1, 8] was 8.83 ± 7.3 h, the bioavailability ([1]; Sprague-Dawley, rat, plasma, po, female rats, p.o. 90 mg/kg, read-out: F) was 16.9% and the MRT last [1, 8] was 15.6 ± 5.82 h. It also gave a Tmax ([1]; Sprague-Dawley, rat, plasma, po, female rats, p.o. 90 mg/kg, read-out: T max) of 7.58 ± 3.38 h, a Vd/F ([1]; Sprague-Dawley, rat, plasma, po, female rats, p.o. 90 mg/kg, read-out: V d /F) of 86.3 ± 62.9 L/kg and an AUC(0-inf) [1, 9] of 4470 ± 1110 ng·h/mL. The AUC(0-t) [1, 9] was 3570 ± 1090 ng·h/mL, the Cmax [1, 9] was 30 ± 10 ng/mL and the half-life [1, 9] was 8 ± 2.4 h. For the same compound, the bioavailability ([1]; Sprague-Dawley, rat, plasma, po, male rats, p.o. 22.5 mg/kg, read-out: F) was 28.7%, the MRT last [1, 9] was 11.2 ± 2.12 h and the Tmax ([1]; Sprague-Dawley, rat, plasma, po, male rats, p.o. 22.5 mg/kg, read-out: T max) was 5.7 ± 2 h. For the same compound, the Vd/F ([1]; Sprague-Dawley, rat, plasma, po, male rats, p.o. 22.5 mg/kg, read-out: V d /F) was 804 ± 267 L/kg, the AUC(0-inf) [1, 10] was 2040 ± 1330 ng·h/mL and the AUC(0-t) [1, 10] was 1960 ± 1320 ng·h/mL. It also gave a Cmax [1, 10] of 140 ± 100 ng/mL, a half-life [1, 10] of 8.11 ± 4.31 h and a bioavailability ([1]; Sprague-Dawley, rat, plasma, po, male rats, p.o. 45 mg/kg, read-out: F) of 7.9%. The MRT last [1, 10] was 13.9 ± 1.17 h, the Tmax ([1]; Sprague-Dawley, rat, plasma, po, male rats, p.o. 45 mg/kg, read-out: T max) was 7.7 ± 2.9 h and the Vd/F ([1]; Sprague-Dawley, rat, plasma, po, male rats, p.o. 45 mg/kg, read-out: V d /F) was 768 ± 127 L/kg. The AUC(0-inf) [1, 11] was 8920 ± 960 ng·h/mL, the AUC(0-t) [1, 11] was 8760 ± 70 ng·h/mL and the Cmax [1, 11] was 550 ± 180 ng/mL. It also gave a half-life [1, 11] of 4.62 ± 3 h, a bioavailability ([1]; Sprague-Dawley, rat, plasma, po, male rats, p.o. 90 mg/kg, read-out: F) of 17.6% and an MRT last [1, 11] of 12.8 ± 2.43 h. For the same compound, the Tmax ([1]; Sprague-Dawley, rat, plasma, po, male rats, p.o. 90 mg/kg, read-out: T max) was 10.3 ± 2.7 h, the Vd/F ([1]; Sprague-Dawley, rat, plasma, po, male rats, p.o. 90 mg/kg, read-out: V d /F) was 92.5 ± 91.7 L/kg and the bioavailability ([1]; Sprague-Dawley, rat, plasma, male rats, range over three oral doses, read-out: Oral bioavailability) was 2.1 to 17.6%. The Tmax ([1]; Sprague-Dawley, rat, plasma, rats, both sexes, oral doses of Table 1, read-out: T max after oral absorption) was 5.7 to 11 h, the CL/F ([1]; female rats, i.v. 10 mg/kg) was 17.7 ± 4.17 mL/min/kg and the “Vd/F” value ([1]; female rats, i.v. 10 mg/kg) was 8.02 ± 6.13 L/kg. It also gave a CL/F ([1]; female, Sprague-Dawley, rat, plasma, po, 22.5 mg/kg, female rats, p.o. 22.5 mg/kg, read-out: CL/F (converted)) of 117 mL/min/kg, a CL/F ([1]; female, Sprague-Dawley, rat, plasma, po, 45 mg/kg, female rats, p.o. 45 mg/kg, read-out: CL/F (converted)) of 87.5 mL/min/kg and a CL/F ([1]; female, Sprague-Dawley, rat, plasma, po, 90 mg/kg, female rats, p.o. 90 mg/kg, read-out: CL/F (converted)) of 80.8 mL/min/kg. The “decrease of CL/F for female rats versus male rats” value ([1]; i.v. 10 mg/kg) was 87%, the CL/F ([1]; male rats, i.v. 10 mg/kg) was 33 ± 6.5 mL/min/kg and the “Vd/F” value ([1]; male rats, i.v. 10 mg/kg) was 24.34 ± 5.52 L/kg. The CL/F ([1]; male rats, p.o. 45 mg/kg, 45 mg/kg) was 782.2 ± 345 mL/min/kg, the CL/F ([1]; male, Sprague-Dawley, rat, plasma, po, 22.5 mg/kg, male rats, p.o. 22.5 mg/kg, read-out: CL/F (converted)) was 1160 mL/min/kg and the CL/F ([1]; male, Sprague-Dawley, rat, plasma, po, 45 mg/kg, male rats, p.o. 45 mg/kg, read-out: CL/F (converted)) was 782 mL/min/kg. The CL/F ([1]; male, Sprague-Dawley, rat, plasma, po, 90 mg/kg, male rats, p.o. 90 mg/kg, read-out: CL/F (converted)) was 196 mL/min/kg, the “increase of C max for female rats versus male rats” value ([1]; p.o. 45 mg/kg) was 364% and the “accumulation of metapristone in blood, day 10 versus day 1” value [2] was “about 6 fold”. The “hepatotoxicity after thirty-day oral administration” value [3] was “reversible hepatotoxicity”.
